Measurements reported in PMC3821045 (Synapse (New York, N.Y.), 2010).
Entries after “also recorded” stand apart in the source; their conditions may differ.

Columns and labels:
Assay type in all cases: cell-based
[1] = biological target: human D2 dopamine receptors (Homo sapiens, UniProt P14416); assay: Forskolin-dependent adenylyl cyclase inhibition assay
[2] = biological target: human D3 dopamine receptors (Homo sapiens, UniProt P35462); assay: as above
[3] = biological target: human D2 receptors expressed in CHO cells (Homo sapiens, UniProt P14416); assay: Mitogenic assay; settings: relative to quinpirole
[4] = biological target: human D3 receptors expressed in CHO cells (Homo sapiens, UniProt P35462); assay: Mitogenic assay; settings: relative to quinpirole
Sequence of human D3 receptors expressed in CHO cells (P35462 whole entry): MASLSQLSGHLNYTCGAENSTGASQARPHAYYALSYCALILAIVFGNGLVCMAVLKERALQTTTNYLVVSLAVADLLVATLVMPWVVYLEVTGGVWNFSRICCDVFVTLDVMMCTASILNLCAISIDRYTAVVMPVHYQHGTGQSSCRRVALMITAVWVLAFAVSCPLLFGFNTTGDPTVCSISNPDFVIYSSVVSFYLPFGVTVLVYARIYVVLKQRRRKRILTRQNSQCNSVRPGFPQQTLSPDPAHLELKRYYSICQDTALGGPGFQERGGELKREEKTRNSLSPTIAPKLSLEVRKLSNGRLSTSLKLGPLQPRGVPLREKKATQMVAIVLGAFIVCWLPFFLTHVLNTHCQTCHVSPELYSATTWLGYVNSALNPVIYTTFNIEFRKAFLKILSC

Sequence of human D2 receptors expressed in CHO cells (P14416 whole entry): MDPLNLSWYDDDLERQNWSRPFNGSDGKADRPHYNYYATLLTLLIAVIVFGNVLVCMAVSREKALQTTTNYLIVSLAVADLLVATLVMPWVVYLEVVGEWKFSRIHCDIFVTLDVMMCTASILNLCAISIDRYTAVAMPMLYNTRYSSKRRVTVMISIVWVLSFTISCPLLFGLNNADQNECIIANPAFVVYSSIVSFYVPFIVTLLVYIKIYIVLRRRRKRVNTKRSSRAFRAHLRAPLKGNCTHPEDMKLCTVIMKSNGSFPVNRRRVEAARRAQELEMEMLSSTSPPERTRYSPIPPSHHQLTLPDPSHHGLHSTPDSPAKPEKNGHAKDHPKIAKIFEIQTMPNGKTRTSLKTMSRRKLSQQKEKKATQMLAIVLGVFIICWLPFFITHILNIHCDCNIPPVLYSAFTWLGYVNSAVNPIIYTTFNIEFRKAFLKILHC
Sequence of human D3 dopamine receptors (P35462 whole entry): as the sequence (P35462 whole entry) above
Sequence of human D2 dopamine receptors (P14416 whole entry): as the sequence (P14416 whole entry) above

Row | efficacy in adenylyl cyclase inhibition assay (in words) [1] | efficacy in adenylyl cyclase inhibition assay (in words) [2] | intrinsic efficacy in mitogenic assay (in words) [3] | intrinsic efficacy in mitogenic assay (in words) [4] | SMILES
1 |  | antagonist |  | antagonist | O=C(NCCCCN1CCN(c2cccc(Cl)c2Cl)CC1)c1ccc2c(c1)Cc1ccccc1-2 [NGB 2904, reference compound]
2 |  | greatest efficacy |  |  | COc1ccccc1N1CCN(C/C=C/CNC(=O)c2ccc(-c3cccnc3)cc2)CC1 [PG 845, (E)-N-(4-(4-(2-methoxyphenyl)piperazin-1-yl)but-2-enyl)-4-(pyridin-3-yl)benzamide]
3 |  | greatest efficacy | antagonist | antagonist | COc1ccccc1N1CCN(CCCCNC(=O)c2ccc(-c3cccnc3)cc2)CC1 [PG 848, N-(4-(4-(2-methoxyphenyl)piperazin-1-yl)butyl)-4-(pyridin-3-yl)benzamide]

Row | SMILES | efficacy in adenylyl cyclase inhibition assay (in words) [1] | efficacy in adenylyl cyclase inhibition assay (in words) [2] | intrinsic efficacy in mitogenic assay (in words) [3] | intrinsic efficacy in mitogenic assay (in words) [4]
4 | O=C(NCCCCN1CCN(c2cccc(Cl)c2Cl)CC1)c1ccc(-c2ccccn2)cc1 [CJB090, N-(4-(4-(2,3-dichlorophenyl)piperazin-1-yl)butyl)-4-(pyridin-2-yl)benzamide] | partial agonist | partial agonist | some activity | partial agonist; also recorded: some activity
5 | O=C(NCCCCN1CCN(c2cccc(Cl)c2Cl)CC1)c1ccc(-c2cccnc2)cc1 [PG01042, N-(4-(4-(2,3-dichlorophenyl)piperazin-1-yl)butyl)-4-(pyridin-3-yl)benzamide] | weak partial agonist | strong agonist; also recorded: almost full agonist | partial mitogenic agonist | partial mitogenic agonist
